Experiment [1] relates to bacterial protein synthesis (aminoacylation/translation system). Briefly: aminoacylation/translation (A/T) assay. Type of experiment: biochemical. The following applies: for pIC50: A/T assay, Table 1, read-out: IC50.
For experiment [2], the system named is E. faecalis. The experiment can be described thus: Broth microdilution MIC testing. Type of experiment: cell-based, Enterococcus faecalis. The following applies: for MIC E. fae: E. faecalis; for MIC: Enterococcus faecalis, read-out: MIC E. fae. A general note: In broth dilution the organism is exposed to a series of concentrations in liquid medium.
The subject of experiment [3] is M. catarrhalis. The experiment can be described thus: Broth microdilution MIC testing. Type of experiment: cell-based, Moraxella catarrhalis. The following applies: for MIC: Moraxella catarrhalis.
The test system of experiment [4] is H. influenzae. The experiment can be described thus: Broth microdilution MIC testing. Type of experiment: cell-based, Haemophilus influenzae. Particulars: for MIC H. flu: H. influenzae; for MIC: Haemophilus influenzae, read-out: MIC H. flu.
In experiment [5] the test system is S. pneumoniae. Briefly: Broth microdilution MIC testing. Particulars: for MIC S. pneumo: S. pneumoniae; for MIC: Streptococcus pneumoniae, read-out: MIC S. pneumo. Type of experiment: cell-based, Streptococcus pneumoniae.
The subject of experiment [6] is S. aureus. Briefly: Broth microdilution MIC testing. Type of experiment: cell-based, Staphylococcus aureus. The following applies: for MIC: Staphylococcus aureus, read-out: MIC S. aureus.
Experiment [7] deals with E. coli tolC mutants. The experiment can be described thus: Broth microdilution MIC testing. Type of experiment: cell-based, Escherichia coli. Particulars: for MIC E. coli tolC: E. coli tolC mutants; for MIC: Escherichia coli, read-out: MIC E. coli tolC.
Experiment [8] relates to E. coli modified with PMBN. Briefly: Broth microdilution MIC testing. Particulars: for MIC E. coli +PMBP: E. coli modified with PMBN; for MIC: Escherichia coli, read-out: MIC E. coli +PMBP. Type of experiment: cell-based, Escherichia coli.
Experiment [9] relates to panel of bacteria. The experiment can be described thus: Antibacterial activity against the panel of bacteria (MIC, overall). As to MIC (antibacterial activity grade): key: +: poor; ++: moderate; +++: good antibacterial activity. The following applies: for MIC (antibacterial activity grade): Table 3. Type of experiment: cell-based.

The pIC50 is −log10 of the IC50, conventionally taken in molar units.

SMILES strings stand for the structures. pIC50: −log10 of the molar value. ≈ marks a conversion by molar mass, not a printed value. Some results are limits rather than exact numbers.

For `CC(C)(C)Oc1ccc(CN2CCc3nc(-c4ccccn4)[nH]c(=O)c3C2)cc1` [Compound 323366], in experiment [1], the pIC50 is 5.61. The “MIC E. fae” value in experiment [2] is 8 µg/mL (≈ 20.5 µM). Besides, in experiment [3], the “MIC M. cat” value is at most 0.12 µg/mL. For the same compound, the “MIC H. flu” value in experiment [4] came to 4 µg/mL (≈ 10.2 µM). Also, the “MIC S. pneumo” value in experiment [5] is 2 µg/mL (≈ 5.12 µM). Further, the “MIC S. aureus” value in [6] turned out to be 8 µg/mL (≈ 20.5 µM). The “MIC E. coli tolC” value in experiment [7] is 4 µg/mL (≈ 10.2 µM). Besides, the “MIC E. coli +PMBP” value in experiment [8] was 2 µg/mL (≈ 5.12 µM). In addition, in [9], the “MIC (antibacterial activity grade)” value is listed as “+++”.

Take `Cn1c(-c2ccccn2)nc2c(c1=O)CN(Cc1ccc(Cl)cc1)CC2` [Compound 323345]: in experiment [1], the “biochemical activity in the A/T assay” value is “abolished most biochemical and antibacterial activities”. The pIC50 in experiment [1] was under 3.52. The MIC in experiment [2] was over 128 µg/mL; in experiment [3] it was 32 µg/mL (≈ 87.2 µM); in experiment [4] it was 64 µg/mL (≈ 174 µM); in [5], 128 µg/mL (≈ 349 µM); in experiment [6], over 128 µg/mL; in experiment [7], 128 µg/mL (≈ 349 µM). Besides, the MIC in experiment [8] amounted to 128 µg/mL (≈ 349 µM). The “antibacterial activity” value in experiment [9] (panel of bacteria) is “abolished most biochemical and antibacterial activities”.

`O=c1[nH]c(-c2ccccn2)nc2c1CN(Cc1ccc(Cl)c(Cl)c1)CC2` [Compound 323342]: the pIC50 in experiment [1] is 4.54. In addition, in experiment [2], the “MIC E. fae” value was determined as 32 µg/mL (≈ 82.6 µM). The “MIC M. cat” value in [3] was at most 0.12 µg/mL. In addition, the “MIC H. flu” value in experiment [4] was 2 µg/mL (≈ 5.16 µM). Besides, in experiment [5], the “MIC S. pneumo” value was 2 µg/mL (≈ 5.16 µM). For the same compound, the “MIC S. aureus” value in experiment [6] is 32 µg/mL (≈ 82.6 µM). For the same compound, in [7], the “MIC E. coli tolC” value came out at 4 µg/mL (≈ 10.3 µM). Besides, in experiment [8], the “MIC E. coli +PMBP” value stood at 16 µg/mL (≈ 41.3 µM). Also, the “MIC (antibacterial activity grade)” value in [9] was “+++”.

With `COc1ccc(CN2CCc3nc(-c4ccccn4)nc(O)c3C2)cc1` [Compound 321529], the pIC50 in experiment [1] was 5.59. The MIC in experiment [2] was 128 µg/mL (≈ 367 µM); in [3] it was 2 µg/mL (≈ 5.74 µM); in experiment [4] it was 8 µg/mL (≈ 23 µM); in experiment [5], 32 µg/mL (≈ 91.8 µM); in [6] it was over 128 µg/mL; in experiment [7], 32 µg/mL (≈ 91.8 µM). The MIC in [8] was 128 µg/mL (≈ 367 µM).

For `COc1cc(Cl)cc(CN2CCc3nc(-c4ccccn4)[nH]c(=O)c3C2)c1OC` [Compound 323203], in [1], the pIC50 is 5.70. The “MIC E. fae” value in [2] is 64 µg/mL (≈ 155 µM). The “MIC M. cat” value in experiment [3] was 1 µg/mL (≈ 2.42 µM). Further, the “MIC H. flu” value in experiment [4] came to 8 µg/mL (≈ 19.4 µM). In addition, the “MIC S. pneumo” value in experiment [5] is 4 µg/mL (≈ 9.69 µM). For the same compound, the “MIC S. aureus” value in [6] was 16 µg/mL (≈ 38.8 µM). For the same compound, the “MIC E. coli tolC” value in [7] is 8 µg/mL (≈ 19.4 µM). In addition, the “MIC E. coli +PMBP” value in experiment [8] turned out to be 16 µg/mL (≈ 38.8 µM).

For `Oc1nc(-c2ccncc2)nc2c1CN(Cc1cccc(F)c1)CC2` [Compound 321386], the pIC50 in experiment [1] was under 3.52. The MIC in [2], in experiment [3], in experiment [4], in [5], in experiment [6] and in experiment [7] was over 128 µg/mL in each case. For the same compound, in [8], the MIC was over 128 µg/mL.

For `O=c1nc(-c2ccccn2)nc2ccn(Cc3ccc(Cl)cc3)cc1-2` [Compound 332055], in [1], the pIC50 was 4.79. In addition, the MIC was 64 µg/mL (≈ 183 µM) in experiment [2]; 32 µg/mL (≈ 91.7 µM) in experiment [3]; 16 µg/mL (≈ 45.9 µM) in experiment [4]; 128 µg/mL (≈ 367 µM) in [5]; over 128 µg/mL in experiment [6]; 128 µg/mL (≈ 367 µM) in experiment [7]. Further, the MIC in experiment [8] is 64 µg/mL (≈ 183 µM).

On to `O=c1[nH]c(-c2ccccn2)nc2c1CN(Cc1cc(F)cc(F)c1)CC2` [Compound 323230], for which the pIC50 in [1] is 5.70. Also, the “MIC E. fae” value in [2] came out at 32 µg/mL (≈ 90.3 µM). In addition, the “MIC M. cat” value in [3] turned out to be 0.5 µg/mL (≈ 1.41 µM). Also, the “MIC H. flu” value in experiment [4] worked out at 8 µg/mL (≈ 22.6 µM). In addition, the “MIC S. pneumo” value in [5] was determined as 8 µg/mL (≈ 22.6 µM). The “MIC S. aureus” value in experiment [6] is 32 µg/mL (≈ 90.3 µM). Further, in experiment [7], the “MIC E. coli tolC” value was 16 µg/mL (≈ 45.2 µM). The “MIC E. coli +PMBP” value in experiment [8] turned out to be 16 µg/mL (≈ 45.2 µM).

As to `Oc1nc(-c2ccccn2)nc2c1CN(Cc1ccccc1)CC2` [Compound 321524], the pIC50 in [1] was 5.70. The MIC came out at 16 µg/mL (≈ 50.3 µM) in experiment [2]; 1 µg/mL (≈ 3.14 µM) in [3]; 4 µg/mL (≈ 12.6 µM) in experiment [4]; 16 µg/mL (≈ 50.3 µM) in experiment [5]; 128 µg/mL (≈ 402 µM) in experiment [6]; 16 µg/mL (≈ 50.3 µM) in experiment [7]. Besides, the MIC in [8] came out at 64 µg/mL (≈ 201 µM).

On to `COc1cc2c(cc1CN1CCc3nc(-c4ccccn4)[nH]c(=O)c3C1)OCO2` [Compound 323233], for which the pIC50 in [1] is under 3.52. The “MIC E. fae” value in [2] came to 128 µg/mL (≈ 326 µM). Further, in experiment [3], the “MIC M. cat” value turned out to be 4 µg/mL (≈ 10.2 µM). Also, in experiment [4], the “MIC H. flu” value came to 16 µg/mL (≈ 40.8 µM). Further, in experiment [5], the “MIC S. pneumo” value stood at 32 µg/mL (≈ 81.5 µM). Besides, in experiment [6], the “MIC S. aureus” value was over 128 µg/mL. Moreover, the “MIC E. coli tolC” value in [7] amounted to 64 µg/mL (≈ 163 µM). The “MIC E. coli +PMBP” value in experiment [8] is 64 µg/mL (≈ 163 µM).

The record behind these values is paper PMC3353862.
